Patent US8278345B2, “Inhibitors of glutaminyl cyclase” (Probiodrug AG, priority 2006, dated 2012)

Molecular target: hQC (Homo sapiens, UniProt Q16769)
Test: Inhibitor assay for glutaminyl cyclase activity (fluorometric, H-Gln-βNA / H-Gln-AMC)
Type: biochemical
Details: compound from preparative synthesis, purified
Procedure: All measurements were performed with a BioAssay Reader HTS-7000Plus for microplates (Perkin Elmer) at 30° C. QC activity was evaluated fluorometrically using H-Gln-βNA. The samples consisted of 0.2 mM fluorogenic substrate, 0.25 U pyroglutamyl aminopeptidase (Unizyme, Hørsholm, Denmark) in 0.2 M Tris/HCl, pH 8.0 containing 20 mM EDTA and an appropriately diluted aliquot of QC in a final volume of 250 μl. Excitation/emission wavelengths were 320/410 nm. The assay reactions were initiated by addition of glutaminyl cyclase. QC activity was determined from a standard curve of β-naphthylamine under assay conditions. One unit is defined as the amount of QC catalyzing the formation of 1 μmol pGlu-βNA from H-Gln-βNA per minute under the described conditions.
In a second fluorometric assay, QC activity was determined using H-Gln-AMC as substrate. Reactions were carried out at 30° C. utilizing the NOVOStar reader for microplates (BMG labtechnologies). The samples consisted of varying concentrations of the fluorogenic substrate, 0.1 U pyroglutamyl aminopeptidase (Qiagen) in 0.05 M Tris/HCl, pH 8.0 containing 5 mM EDTA and an appropriately diluted aliquot of QC in a final volume of 250 μl. Excitation/emission wavelengths were 380/460 nm. The assay reactions were initiated by addition of glutaminyl cyclase. QC activity was determined from a standard curve of 7-amino-4-methylcoumarin under assay conditions. The kinetic data were evaluated using GraFit sofware.
For inhibitor testing, the sample composition was the same as described above, except of the putative inhibitory compound added. For a rapid test of QC-inhibition, samples contained 4 mM of the respective inhibitor and a substrate concentration at 1 KM. For detailed investigations of the inhibition and determination of Ki-values, influence of the inhibitor on the auxiliary enzymes was investigated first. In every case, there was no influence on either enzyme detected, thus enabling the reliable determination of the QC inhibition. The inhibitory constant was evaluated by fitting the set of progress curves to the general equation for competitive inhibition using GraFit software.

hQC, sequence (Q16769 29-361): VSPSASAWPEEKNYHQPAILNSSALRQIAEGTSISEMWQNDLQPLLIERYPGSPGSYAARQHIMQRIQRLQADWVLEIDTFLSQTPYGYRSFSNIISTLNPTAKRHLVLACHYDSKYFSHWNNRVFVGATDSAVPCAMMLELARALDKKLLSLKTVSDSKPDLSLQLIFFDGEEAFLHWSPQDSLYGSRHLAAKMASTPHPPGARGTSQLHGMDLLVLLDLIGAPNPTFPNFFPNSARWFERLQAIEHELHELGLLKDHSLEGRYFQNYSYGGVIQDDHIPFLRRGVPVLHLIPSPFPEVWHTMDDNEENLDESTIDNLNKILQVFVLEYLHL

Work on `CC1=C(O)C(=O)N(c2ccc3nc[nH]c3c2)C1c1c(F)cccc1F` (centres unmarked) [Compound 473, 1-(1H-benzo[d]imidazol-6-yl)-5-(2,6-difluorophenyl)-3-hydroxy-4-methyl-1H-pyrrol-2(5H)-one] yielded a Ki of 29.2 nM.

Same assay, conditions: compound from preparative synthesis, purified; read-out: IC50 hQC

In the case of `O=C1C(O)=C(c2ccccc2)C(c2ccc3[nH]ccc3c2)N1CCCn1ccnc1` (centres unmarked) [Compound 85, 3-Hydroxy-1-(3-imidazol-1-yl-propyl)-5-(1H-indol-5-yl)-4-phenyl-1,5-dihydro-pyrrol-2-one], the IC50 is reported as 640 nM.

Same assay, conditions: read-out: IC50

Point of comparison: `O=C1C(O)=C(c2c[nH]c3ccccc23)C(C2=CCCCC2)N1CCCn1ccnc1` (centres unmarked) [Compound 129, 5-Cyclohex-1-enyl-3-hydroxy-1-(3-imidazol-1-yl-propyl)-4-(1H-indol-3-yl)-1,5-dihydro-pyrrol-2-one], IC50 400 nM. Against it:
- CCC1=C(O)C(=O)N(CCCn2ccnc2)C1c1ccc(C)cc1 (centres unmarked) [Compound 221, 4-Ethyl-3-hydroxy-1-(3-imidazol-1-yl-propyl)-5-p-tolyl-1,5-dihydro-pyrrol-2-one] — the same, 400 nM
- CCC1=C(O)C(=O)N(c2ccc3[nH]cnc3c2)C1c1c(F)c(F)cc(F)c1F (centres unmarked) [Compound 400, 1-(1H-Benzoimidazol-5-yl)-4-ethyl-3-hydroxy-5-(2,3,5,6-tetrafluoro-phenyl)-1,5-dihydro-pyrrol-2-one] — 17-fold higher, 6970 nM
- CC(=O)C1=C(O)C(=O)N(c2ccc3[nH]cnc3c2)C1c1ccc(N2CCCC2)cc1 (centres unmarked) [Compound 345, 4-Acetyl-1-(1H-benzoimidazol-5-yl)-3-hydroxy-5-(4-pyrrolidin-1-yl-phenyl)-1,5-dihydro-pyrrol-2-one] — 3.9-fold higher, 1570 nM
- CC1=C(O)C(=O)N(CCCn2ccnc2)C1c1ncc[nH]1 (centres unmarked) [Compound 40, 3-Hydroxy-5-(1H-imidazol-2-yl)-1-(3-imidazol-1-yl-propyl)-4-methyl-1,5-dihydro-pyrrol-2-one] — 5.5-fold higher, 2200 nM
- CC(C)(C)C(=O)C1=C(O)C(=O)N(c2ccc3[nH]cnc3c2)C1c1ccc2cccc(O)c2n1 (centres unmarked) [Compound 310, 1-(1H-Benzoimidazol-5-yl)-4-(2,2-dimethyl-propionyl)-3-hydroxy-5-(8-hydroxy-quinolin-2-yl)-1,5-dihydro-pyrrol-2-one] — 2.6-fold higher, 1030 nM
- CCC1=C(O)C(=O)N(CCCn2ccnc2)C1c1ccncc1 (centres unmarked) [Compound 244, 4-Ethyl-3-hydroxy-1-(3-imidazol-1-yl-propyl)-5-pyridin-4-yl-1,5-dihydro-pyrrol-2-one] — the same, 400 nM
- O=C(C1=C(O)C(=O)N(c2ccc3[nH]cnc3c2)C1c1ncc[nH]1)C1CCCCC1 (centres unmarked) [Compound 435, 1-(1H-Benzoimidazol-5-yl)-4-cyclohexanecarbonyl-3-hydroxy-5-(1H-imidazol-2-yl)-1,5-dihydro-pyrrol-2-one] — 17-fold higher, 6970 nM
- O=C1C(O)=C(c2ccccc2)C(c2ccc3[nH]ccc3c2)N1CCCn1ccnc1 (centres unmarked) [Compound 85, 3-Hydroxy-1-(3-imidazol-1-yl-propyl)-5-(1H-indol-5-yl)-4-phenyl-1,5-dihydro-pyrrol-2-one] — 10-fold lower, 40 nM
- CCCCCC1=C(O)C(=O)N(CCCn2ccnc2)C1c1ccncc1 (centres unmarked) [Compound 209, 3-Hydroxy-1-(3-imidazol-1-yl-propyl)-4-pentyl-5-pyridin-4-yl-1,5-dihydro-pyrrol-2-one] — 10-fold lower, 40 nM
- CC1=C(O)C(=O)N(CCCn2ccnc2)C1Cc1ccccc1 (centres unmarked) [Compound 41, 5-Benzyl-3-hydroxy-1-(3-imidazol-1-yl-propyl)-4-methyl-1,5-dihydro-pyrrol-2-one] — 3.2-fold higher, 1300 nM
- CCCC1C(c2c[nH]c3ccccc23)=C(O)C(=O)N1CCCn1ccnc1 (centres unmarked) [Compound 115, 3-Hydroxy-1-(3-imidazol-1-yl-propyl)-4-(1H-indol-3-yl)-5-propyl-1,5-dihydro-pyrrol-2-one] — the same, 400 nM
- O=C1C(O)=C(c2ccc(O)cc2)C(c2cccc(F)c2)N1c1ccc2[nH]cnc2c1 (centres unmarked) [Compound 363, 1-(1H-Benzoimidazol-5-yl)-5-(3-fluoro-phenyl)-3-hydroxy-4-(4-hydroxy-phenyl)-1,5-dihydro-pyrrol-2-one] — 1.7-fold higher, 670 nM
- CC(C)(C)C(=O)C1=C(O)C(=O)N(c2ccc3[nH]cnc3c2)C1c1cc(F)cc(F)c1F (centres unmarked) [Compound 341, 1-(1H-Benzoimidazol-5-yl)-4-(2,2-dimethyl-propionyl)-3-hydroxy-5-(2,3,5-trifluoro-phenyl)-1,5-dihydro-pyrrol-2-one] — 12-fold higher, 4900 nM
- CC(=O)C1=C(O)C(=O)N(c2ccc3[nH]cnc3c2)C1c1cc(Br)c(O)c(Br)c1 (centres unmarked) [Compound 414, 4-Acetyl-1-(1H-benzoimidazol-5-yl)-5-(3,5-dibromo-4-hydroxy-phenyl)-3-hydroxy-1,5-dihydro-pyrrol-2-one] — 6-fold higher, 2380 nM
- CCCCCC1=C(O)C(=O)N(CCCn2ccnc2)C1C(F)(F)F (centres unmarked) [Compound 203, 3-Hydroxy-1-(3-imidazol-1-yl-propyl)-4-pentyl-5-trifluoromethyl-1,5-dihydro-pyrrol-2-one] — 10-fold lower, 40 nM
- O=C(C1=C(O)C(=O)N(c2ccc3[nH]cnc3c2)C1c1cc[nH]n1)C1CCCCC1 (centres unmarked) [Compound 379, 1-(1H-Benzoimidazol-5-yl)-4-cyclohexanecarbonyl-3-hydroxy-5-(1H-pyrazol-3-yl)-1,5-dihydro-pyrrol-2-one] — 13-fold higher, 5260 nM
- O=C1C(O)=C(c2c[nH]c3ccccc23)C(c2ccccn2)N1CCCn1ccnc1 (centres unmarked) [Compound 135, 3-Hydroxy-1-(3-imidazol-1-yl-propyl)-4-(1H-indol-3-yl)-5-pyridin-2-yl-1,5-dihydro-pyrrol-2-one] — 10-fold lower, 40 nM
- Cc1ccc(C2C(C(C)C)=C(O)C(=O)N2CCCn2ccnc2)cc1 (centres unmarked) [Compound 54, 3-Hydroxy-1-(3-imidazol-1-yl-propyl)-4-isopropyl-5-p-tolyl-1,5-dihydro-pyrrol-2-one] — the same, 400 nM
- CC1=C(O)C(=O)N(c2ccc3nc[nH]c3c2)C1c1c(F)cccc1F (centres unmarked) [Compound 473, 1-(1H-benzo[d]imidazol-6-yl)-5-(2,6-difluorophenyl)-3-hydroxy-4-methyl-1H-pyrrol-2(5H)-one] — 1.5-fold lower, 259 nM
- CCC1C(C)=C(O)C(=O)N1CCCn1ccnc1 (centres unmarked) [Compound 49, 5-Ethyl-3-hydroxy-1-(3-imidazol-1-yl-propyl)-4-methyl-1,5-dihydro-pyrrol-2-one] — 12-fold higher, 4900 nM
- CCC/C=C/C1C(CCCCC)=C(O)C(=O)N1CCCn1ccnc1 (centres unmarked) [Compound 185, 3-Hydroxy-1-(3-imidazol-1-yl-propyl)-5-(pent-1-enyl)-4-pentyl-1,5-dihydro-pyrrol-2-one] — 3.2-fold higher, 1300 nM
- CC(C)C1=C(O)C(=O)N(CCCn2ccnc2)C1/C=C/c1ccccc1 (centres unmarked) [Compound 64, 3-Hydroxy-1-(3-imidazol-1-yl-propyl)-4-isopropyl-5-(styryl)-1,5-dihydro-pyrrol-2-one] — 7.8-fold higher, 3100 nM
- CC(=O)C1=C(O)C(=O)N(c2ccc3[nH]cnc3c2)C1c1cc(C)c(C)o1 (centres unmarked) [Compound 433, 4-Acetyl-1-(1H-benzoimidazol-5-yl)-5-(4,5-dimethyl-furan-2-yl)-3-hydroxy-1,5-dihydro-pyrrol-2-one] — 3-fold higher, 1210 nM
- O=C1C(O)=C(c2cccc(O)c2)C(c2cc[nH]n2)N1CCCn1ccnc1 (centres unmarked) [Compound 8, 3-Hydroxy-4-(3-hydroxy-phenyl)-1-(3-imidazol-1-yl-propyl)-5-(1H-pyrazol-3-yl)-1,5-dihydro-pyrrol-2-one] — 24-fold higher, 9400 nM
- CC1=C(O)C(=O)N(c2ccc3[nH]cnc3c2)C1c1ccc2cccc(O)c2n1 (centres unmarked) [Compound 319, 1-(1H-Benzoimidazol-5-yl)-3-hydroxy-5-(8-hydroxy-quinolin-2-yl)-4-methyl-1,5-dihydro-pyrrol-2-one] — 7.1-fold higher, 2830 nM
- CCC1=C(O)C(=O)N(CCCn2ccnc2)C1C1CC1 (centres unmarked) [Compound 246, 5-Cyclopropyl-4-ethyl-3-hydroxy-1-(3-imidazol-1-yl-propyl)-1,5-dihydro-pyrrol-2-one] — 3.2-fold higher, 1300 nM
- Cc1ccc2occ(C3C(C(=O)C(C)(C)C)=C(O)C(=O)N3c3ccc4[nH]cnc4c3)c(=O)c2c1 (centres unmarked) [Compound 382, 1-(1H-Benzoimidazol-5-yl)-4-(2,2-dimethyl-propionyl)-3-hydroxy-5-(6-methyl-4-oxo-4H-chromen-3-yl)-1,5-dihydro-pyrrol-2-one] — 10-fold higher, 4000 nM
- O=C1C(O)=C(c2ccc(O)cc2)C(c2c[nH]c3ccccc23)N1CCCn1ccnc1 (centres unmarked) [Compound 167, 3-Hydroxy-4-(4-hydroxy-phenyl)-1-(3-imidazol-1-yl-propyl)-5-(1H-indol-3-yl)-1,5-dihydro-pyrrol-2-one] — 10-fold lower, 40 nM
- CC(C)/C=C/C1C(c2ccccc2)=C(O)C(=O)N1CCCn1ccnc1 (centres unmarked) [Compound 83, 3-Hydroxy-1-(3-imidazol-1-yl-propyl)-5-(3-methyl-but-1-enyl)-4-phenyl-1,5-dihydro-pyrrol-2-one] — 17-fold higher, 6700 nM
- CC1C(c2ccccc2)=C(O)C(=O)N1CCCn1ccnc1 (centres unmarked) [Compound 90, 3-Hydroxy-1-(3-imidazol-1-yl-propyl)-5-methyl-4-phenyl-1,5-dihydro-pyrrol-2-one] — 3.2-fold higher, 1300 nM
- CCCC(=O)C1=C(O)C(=O)N(c2ccc3[nH]cnc3c2)C1c1nccs1 (centres unmarked) [Compound 254, 1-(1H-Benzoimidazol-5-yl)-4-butyryl-3-hydroxy-5-thiazol-2-yl-1,5-dihydro-pyrrol-2-one] — 5.5-fold higher, 2200 nM
- Cc1cccc(C2C(C(=O)c3ccsc3)=C(O)C(=O)N2c2ccc3[nH]cnc3c2)n1 (centres unmarked) [Compound 306, 1-(1H-Benzoimidazol-5-yl)-3-hydroxy-5-(6-methyl-pyridin-2-yl)-4-(thiophene-3-carbonyl)-1,5-dihydro-pyrrol-2-one] — the same, 400 nM
